PubChem BioAssay (NCI)
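A five-concentration, 48-hour dose response in 96-well plates underlies each endpoint, interpolated linearly between surrounding concentrations. The concentration for 50% growth inhibition is given as GI50. TGI marks complete inhibition of growth.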

Assays:
Test in all cases: NCI tumour cell line growth inhibition, 48 h
K-562 leukemia = tested on: K-562 leukemia
M14 melanoma = tested on: M14 melanoma
SW-620 colon = tested on: SW-620 colon
COLO 205 colon = tested on: COLO 205 colon
PC-3 prostate = tested on: PC-3 prostate
CAKI-1 renal = tested on: CAKI-1 renal
MALME-3M melanoma = tested on: MALME-3M melanoma
HCT-15 colon = tested on: HCT-15 colon
LOX IMVI melanoma = tested on: LOX IMVI melanoma
NCI/ADR-RES ovarian = tested on: NCI/ADR-RES ovarian
A498 renal = tested on: A498 renal
SNB-19 CNS = tested on: SNB-19 CNS
NCI-H23 lung = tested on: NCI-H23 lung
SK-OV-3 ovarian = tested on: SK-OV-3 ovarian
BT-549 breast = tested on: BT-549 breast
SF-268 CNS = tested on: SF-268 CNS
786-0 renal = tested on: 786-0 renal
HCC-2998 colon = tested on: HCC-2998 colon
KM12 colon = tested on: KM12 colon
SK-MEL-5 melanoma = tested on: SK-MEL-5 melanoma
SN12C renal = tested on: SN12C renal
DU-145 prostate = tested on: DU-145 prostate
EKVX NSCLC = tested on: EKVX NSCLC
NCI-H226 lung = tested on: NCI-H226 lung
OVCAR-3 ovarian = tested on: OVCAR-3 ovarian
MCF7 breast = tested on: MCF7 breast
IGROV1 ovarian = tested on: IGROV1 ovarian
SF-295 CNS = tested on: SF-295 CNS
SK-MEL-2 melanoma = tested on: SK-MEL-2 melanoma
ACHN renal = tested on: ACHN renal
MDA-MB-231 breast = tested on: MDA-MB-231 breast
NCI-H460 lung = tested on: NCI-H460 lung
MOLT-4 leukemia = tested on: MOLT-4 leukemia
CCRF-CEM leukemia = tested on: CCRF-CEM leukemia
SF-539 CNS = tested on: SF-539 CNS
A549 NSCLC = tested on: A549 NSCLC
MDA-MB-435 = tested on: MDA-MB-435
SK-MEL-28 melanoma = tested on: SK-MEL-28 melanoma
SR leukemia = tested on: SR leukemia
HCT-116 colon = tested on: HCT-116 colon
TK-10 renal = tested on: TK-10 renal
UACC-257 melanoma = tested on: UACC-257 melanoma
UACC-62 melanoma = tested on: UACC-62 melanoma
UO-31 renal = tested on: UO-31 renal
U251 CNS = tested on: U251 CNS
RXF 393 renal = tested on: RXF 393 renal
HOP-92 NSCLC = tested on: HOP-92 NSCLC
OVCAR-5 ovarian = tested on: OVCAR-5 ovarian
HS 578T breast = tested on: HS 578T breast
T-47D breast = tested on: T-47D breast
HL-60(TB) leukemia = tested on: HL-60(TB) leukemia
RPMI-8226 leukemia = tested on: RPMI-8226 leukemia
OVCAR-8 ovarian = tested on: OVCAR-8 ovarian
OVCAR-4 ovarian = tested on: OVCAR-4 ovarian
HT29 colon = tested on: HT29 colon
SNB-75 CNS = tested on: SNB-75 CNS
HOP-62 NSCLC = tested on: HOP-62 NSCLC

SMILES: Clc1ccc2nc(CI)c(CI)nc2c1
- GI50 (K-562 leukemia): 1.53 µM
- TGI (K-562 leukemia): 7.86 µM
- GI50 (M14 melanoma): 3.16 µM
- TGI (M14 melanoma): > 19.8 µM
- GI50 (SW-620 colon): 2.54 µM
- TGI (SW-620 colon): 6.62 µM
- GI50 (COLO 205 colon): 1.77 µM
- TGI (COLO 205 colon): 3.28 µM
- GI50 (PC-3 prostate): 7.02 µM
- TGI (PC-3 prostate): 29.9 µM
- GI50 (CAKI-1 renal): 9.56 µM
- TGI (CAKI-1 renal): 24.9 µM
- GI50 (MALME-3M melanoma): 1.75 µM
- TGI (MALME-3M melanoma): 3.83 µM
- GI50 (HCT-15 colon): 3.46 µM
- TGI (HCT-15 colon): 12.1 µM
- GI50 (LOX IMVI melanoma): 1.64 µM
- TGI (LOX IMVI melanoma): 3.37 µM
- GI50 (NCI/ADR-RES ovarian): 6.8 µM
- TGI (NCI/ADR-RES ovarian): > 57.7 µM
- GI50 (A498 renal): 29.7 µM
- TGI (A498 renal): > 60.7 µM
- GI50 (SNB-19 CNS): 33.2 µM
- TGI (SNB-19 CNS): > 59.4 µM
- GI50 (NCI-H23 lung): 7.37 µM
- TGI (NCI-H23 lung): 25.8 µM
- GI50 (SK-OV-3 ovarian): 23.1 µM
- TGI (SK-OV-3 ovarian): > 58 µM
- GI50 (BT-549 breast): 2.11 µM
- TGI (BT-549 breast): 5.58 µM
- GI50 (SF-268 CNS): 4.69 µM
- TGI (SF-268 CNS): 14.3 µM
- GI50 (786-0 renal): 4.07 µM
- GI50 (HCC-2998 colon): 15.7 µM
- TGI (HCC-2998 colon): 30.3 µM
- GI50 (KM12 colon): 6.07 µM
- TGI (KM12 colon): 17.6 µM
- GI50 (SK-MEL-5 melanoma): 4.59 µM
- TGI (SK-MEL-5 melanoma): 14.3 µM
- GI50 (SN12C renal): 2.94 µM
- TGI (SN12C renal): 8.62 µM
- GI50 (DU-145 prostate): 10.1 µM
- TGI (DU-145 prostate): 23.5 µM
- GI50 (EKVX NSCLC): 13.6 µM
- TGI (EKVX NSCLC): 40.9 µM
- GI50 (NCI-H226 lung): 10.4 µM
- TGI (NCI-H226 lung): > 38 µM
- GI50 (OVCAR-3 ovarian): 3.02 µM
- TGI (OVCAR-3 ovarian): 7.14 µM
- GI50 (MCF7 breast): 2.87 µM
- TGI (MCF7 breast): 9.53 µM
- GI50 (IGROV1 ovarian): 2.73 µM
- TGI (IGROV1 ovarian): 8.36 µM
- GI50 (SF-295 CNS): 15.4 µM
- TGI (SF-295 CNS): 36.8 µM
- GI50 (SK-MEL-2 melanoma): 6.45 µM
- TGI (SK-MEL-2 melanoma): > 32.6 µM
- GI50 (ACHN renal): 1.83 µM
- TGI (ACHN renal): 3.4 µM
- GI50 (MDA-MB-231 breast): 2.67 µM
- TGI (MDA-MB-231 breast): 7.58 µM
- GI50 (NCI-H460 lung): 10.1 µM
- TGI (NCI-H460 lung): 27.1 µM
- GI50 (MOLT-4 leukemia): 1.89 µM
- TGI (MOLT-4 leukemia): 9.08 µM
- GI50 (CCRF-CEM leukemia): 2.3 µM
- TGI (CCRF-CEM leukemia): 15.3 µM
- GI50 (SF-539 CNS): 2.46 µM
- TGI (SF-539 CNS): 6.31 µM
- GI50 (A549 NSCLC): 17.8 µM
- TGI (A549 NSCLC): 38.7 µM
- GI50 (MDA-MB-435): 3.16 µM
- TGI (MDA-MB-435): 14.4 µM
- GI50 (SK-MEL-28 melanoma): 14.4 µM
- TGI (SK-MEL-28 melanoma): 27.7 µM
- GI50 (SR leukemia): 1.68 µM
- TGI (SR leukemia): 6.79 µM
- GI50 (HCT-116 colon): 2.53 µM
- GI50 (TK-10 renal): 3 µM
- TGI (TK-10 renal): 10.2 µM
- GI50 (UACC-257 melanoma): 4.51 µM
- TGI (UACC-257 melanoma): 16.8 µM
- GI50 (UACC-62 melanoma): 4.73 µM
- TGI (UACC-62 melanoma): 17.2 µM
- GI50 (UO-31 renal): 1.72 µM
- TGI (UO-31 renal): 3.5 µM
- GI50 (U251 CNS): 2.71 µM
- TGI (U251 CNS): 7.23 µM
- GI50 (RXF 393 renal): 4.04 µM
- TGI (RXF 393 renal): 9.36 µM
- GI50 (HOP-92 NSCLC): 3 µM
- TGI (HOP-92 NSCLC): 8.3 µM
- GI50 (OVCAR-5 ovarian): 6.98 µM
- TGI (OVCAR-5 ovarian): 19.5 µM
- GI50 (HS 578T breast): 20.6 µM
- TGI (HS 578T breast): > 65.5 µM
- GI50 (T-47D breast): 2.6 µM
- TGI (T-47D breast): 8.28 µM
- GI50 (HL-60(TB) leukemia): 1.23 µM
- TGI (HL-60(TB) leukemia): 9.06 µM
- GI50 (RPMI-8226 leukemia): 2.62 µM
- TGI (RPMI-8226 leukemia): 8.25 µM
- GI50 (OVCAR-8 ovarian): 2.87 µM
- TGI (OVCAR-8 ovarian): > 23.5 µM
- GI50 (OVCAR-4 ovarian): 2.45 µM
- TGI (OVCAR-4 ovarian): 6.22 µM
- GI50 (HT29 colon): 3.74 µM
- TGI (HT29 colon): 19.6 µM
- GI50 (SNB-75 CNS): 8.87 µM
- TGI (SNB-75 CNS): 23.2 µM
- GI50 (HOP-62 NSCLC): 28.7 µM
- TGI (HOP-62 NSCLC): > 56.3 µM
